pIC50: −log10 of the molar value. The source made the active and inactive calls. The calls are words filed in the database; no cut-off is given here.
How the values were obtained:
Mus musculus [1] = test: Downregulation of AXL expression in Balb/c mouse xenografted with human MDA-MB-231 cells at 5 mg/kg, ip administered 3 times per week for 29 days by DAB staining based immunohistochemical analysis; assay type: functional, organism-based
[2] = Toxicity in Balb/c mouse xenografted with human MDA-MB-231 cells assessed as reduction in body weight at 5 mg/kg, ip ip administered 3 times per week and measured 2 times per week for 29 days; assay type: organism-based; details: in vivo, 696 h
Mus musculus [3] = test: Downregulation of Ki67 expression in Balb/c mouse xenografted with human MDA-MB-231 cells at 5 mg/kg, ip administered 3 times per week for 29 days by DAB staining based immunohistochemical analysis; assay type: functional, organism-based
Mus musculus [4] = test: Downregulation of phosphorylated STAT1 expression at ser727 residue in Balb/c mouse xenografted with human MDA-MB-231 cells at 5 mg/kg, ip administered 3 times per week for 29 days by DAB staining based immunohistochemical analysis; assay type: functional, organism-based
MDA-MB-231 [5] = test: Inhibition of epithelial-mesenchymal transition in human MDA-MB-231 cells reduction in vimentin protein expression after 24 hrs by Western blot analysis; assay type: functional, cell-based
[6] = molecular target: Cyclin-dependent kinase 8 (Homo sapiens) (UniProt P49336); test: Inhibition of CDK8 in human MDA-MB-231 cells assessed as reduction in HK1 expression at 10 uM after 24 hrs by RT-PCR analysis; assay type: cell-based
Sequence of Cyclin-dependent kinase 8 (Homo sapiens) (P49336 whole entry): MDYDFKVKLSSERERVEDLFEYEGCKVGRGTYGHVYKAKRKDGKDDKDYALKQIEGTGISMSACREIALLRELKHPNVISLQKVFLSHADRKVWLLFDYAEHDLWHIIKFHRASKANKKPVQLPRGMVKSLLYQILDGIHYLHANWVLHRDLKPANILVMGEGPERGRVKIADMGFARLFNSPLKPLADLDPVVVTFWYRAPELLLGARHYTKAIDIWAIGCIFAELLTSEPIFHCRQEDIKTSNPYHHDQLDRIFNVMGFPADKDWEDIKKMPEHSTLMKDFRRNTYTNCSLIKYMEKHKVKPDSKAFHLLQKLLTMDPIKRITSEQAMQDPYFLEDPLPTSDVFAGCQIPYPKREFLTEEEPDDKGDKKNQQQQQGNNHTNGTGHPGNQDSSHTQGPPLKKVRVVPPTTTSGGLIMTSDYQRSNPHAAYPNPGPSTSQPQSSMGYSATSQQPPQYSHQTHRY

[7] = molecular target: Cyclin-dependent kinase 8 (Homo sapiens) (UniProt P49336); test: Inhibition of CDK8 in human HCC38 cells assessed as reduction in skp2 expression after 48 hrs by Western blot analysis; assay type: cell-based
MDA-MB-231 [8] = test: Antitumour activity against human MDA-MB-231 cells xenografted in Balb/c mouse assessed as reduction in tumour volume at 20 mg/kg, ip administered 3 times per week and measured 2 times per week for 29 days relative to control; assay type: functional; parameters: scale not given: the % may be the effect or the level left
[9] = molecular target: Cyclin-dependent kinase 8 (Homo sapiens) (UniProt P49336); test: Inhibition of CDK8 in human HCC38 cells assessed as reduction in STAT3 phosphorylation after 24 hrs by Western blot analysis; assay type: cell-based
[10] = molecular target: Cyclin-dependent kinase 8 (Homo sapiens) (UniProt P49336); test: Inhibition of CDK8 in human MDA-MB-231 cells assessed as reduction in STAT1 phosphorylation at Ser727 residue after 24 hrs by Western blot analysis; assay type: cell-based
MDA-MB-231 [11] = test: Cell cycle arrest in human MDA-MB-231 cells assessed as increase in accumulation of cells at sub-G1 phase at 2.5 to 10 uM by PI/RNase staining based flow cytometric analysis; assay type: functional
HCC38 [12] = test: Inhibition of colony formation in human HCC38 cells assessed as reduction in number of colonies at 2.5 to 20 uM after 14 days by crystal violet staining based light microscopic analysis; assay type: functional, cell-based
MDA-MB-231 [13] = test: Inhibition of colony formation in human MDA-MB-231 cells assessed as reduction in colony size at 2.5 to 20 uM after 14 days by crystal violet staining based light microscopic analysis; assay type: functional, cell-based
[14] = molecular target: Cyclin-dependent kinase 8 (Homo sapiens) (UniProt P49336); test: Inhibition of CDK8 in human MDA-MB-231 cells assessed as reduction in S6 phosphorylation after 24 hrs by Western blot analysis; assay type: cell-based
MDA-MB-231 [15] = test: Antiproliferative activity against human MDA-MB-231 cells assessed as reduction in cell viability after 72 hrs by SRB assay; assay type: functional, cell-based
MDA-MB-231 [16] = test: Inhibition of epithelial-mesenchymal transition in human MDA-MB-231 cells reduction in BMP4 protein expression after 24 hrs by Western blot analysis; assay type: functional, cell-based
[17] = molecular target: Cyclin-dependent kinase 8 (Homo sapiens) (UniProt P49336); test: Inhibition of CDK8 in human HCC38 cells assessed as reduction in AXL expression after 24 hrs by Western blot analysis; assay type: cell-based
HCC38 [18] = test: Antimigratory activity against human HCC38 cells at 1.25 to 5 uM after 24 hrs by scratch wound healing based microscopic analysis; assay type: functional, cell-based
HCC38 [19] = test: Induction of apoptosis in human HCC38 cells at 2.5 to 20 uM after 48 hrs by Annexin-V/PI staining based flow cytometric analysis; assay type: functional, cell-based
HCC38 [20] = test: Induction of apoptosis in human HCC38 cells assessed as increase in PARP cleavage after 48 hrs by Western blot analysis; assay type: functional, cell-based
[21] = molecular target: Cyclin-dependent kinase 8 (Homo sapiens) (UniProt P49336); test: Inhibition of CDK8 in human MDA-MB-231 cells assessed as reduction in AXL expression after 24 hrs by Western blot analysis; assay type: cell-based
Mus musculus [22] = test: Downregulation of phosphorylated STAT1 expression at ser727 residue in Balb/c mouse xenografted with human MDA-MB-231 cells at 5 to 20 mg/kg, ip administered 3 times per week for 29 days by DAB staining based immunohistochemical analysis; assay type: functional, organism-based
[23] = molecular target: Cyclin-dependent kinase 8 (Homo sapiens) (UniProt P49336); test: Inhibition of CDK8 in human HCC38 cells assessed as reduction in S6 phosphorylation after 24 hrs by Western blot analysis; assay type: cell-based
HCC38 [24] = test: Inhibition of epithelial-mesenchymal transition in human HCC38 cells reduction in vimentin protein expression after 24 hrs by Western blot analysis; assay type: functional, cell-based
[25] = molecular target: Cyclin-dependent kinase 8 (Homo sapiens) (UniProt P49336); test: Inhibition of CDK8 in human HCC38 cells assessed as increase in P27 expression after 48 hrs by Western blot analysis; assay type: cell-based
HCC38 [26] = test: Inhibition of epithelial-mesenchymal transition in human HCC38 cells reduction in N-cadherin expression at 5 uM after 24 hrs by RT-PCR analysis; assay type: functional, cell-based
Mus musculus [27] = test: Downregulation of AXL expression in Balb/c mouse xenografted with human MDA-MB-231 cells at 5 to 20 mg/kg, ip administered 3 times per week for 29 days by DAB staining based immunohistochemical analysis; assay type: functional, organism-based
Mus musculus [28] = test: Downregulation of Ki67 expression in Balb/c mouse xenografted with human MDA-MB-231 cells at 5 to 20 mg/kg, ip administered 3 times per week for 29 days by DAB staining based immunohistochemical analysis; assay type: functional, organism-based
HCC38 [29] = test: Inhibition of epithelial-mesenchymal transition in human HCC38 cells increase in E-cadherin expression at 5 uM after 24 hrs by RT-PCR analysis; assay type: functional, cell-based
[30] = molecular target: Cyclin-dependent kinase 8 (Homo sapiens) (UniProt P49336); test: Inhibition of CDK8 in human MDA-MB-231 cells assessed as increase in P27 expression at 10 uM after 24 hrs by RT-PCR analysis; assay type: cell-based
MDA-MB-231 [31] = test: Antimigratory activity against human MDA-MB-231 cells at 1.25 to 5 uM after 24 hrs by scratch wound healing based microscopic analysis; assay type: functional, cell-based
HCC38 [32] = test: Antiproliferative activity against human HCC38 cells assessed as reduction in cell viability after 72 hrs by SRB assay; assay type: functional, cell-based
MDA-MB-231 [33] = test: Inhibition of colony formation in human MDA-MB-231 cells assessed as reduction in number of colonies at 2.5 to 20 uM after 14 days by crystal violet staining based light microscopic analysis; assay type: functional, cell-based
HCC38 [34] = test: Inhibition of colony formation in human HCC38 cells assessed as reduction in colony size at 20 uM after 14 days by crystal violet staining based light microscopic analysis; assay type: functional, cell-based
[35] = molecular target: Cyclin-dependent kinase 8 (Homo sapiens) (UniProt P49336); test: Inhibition of CDK8 in human MDA-MB-231 cells assessed as reduction in STAT3 phosphorylation after 24 hrs by Western blot analysis; assay type: cell-based
[36] = molecular target: Cyclin-dependent kinase 8 (Homo sapiens) (UniProt P49336); test: Inhibition of CDK8 in human HCC38 cells assessed as reduction in HK1 expression at 10 uM after 24 hrs by RT-PCR analysis; assay type: cell-based
[37] = molecular target: Cyclin-dependent kinase 8 (Homo sapiens) (UniProt P49336); test: Inhibition of CDK8 in human HCC38 cells assessed as reduction in STAT1 phosphorylation at Ser727 residue after 24 hrs by Western blot analysis; assay type: cell-based
[38] = molecular target: Cyclin-dependent kinase 8 (Homo sapiens) (UniProt P49336); test: Inhibition of CDK8 in human HCC38 cells assessed as increase in P27 expression at 10 uM after 24 hrs by RT-PCR analysis; assay type: cell-based
[39] = Toxicity in Balb/c mouse xenografted with human MDA-MB-231 cells assessed as effect on body weight at 5 to 20 mg/kg, ip ip administered 3 times per week and measured 2 times per week for 29 days; assay type: organism-based; details: in vivo, 696 h
MDA-MB-231 [40] = test: Inhibition of epithelial-mesenchymal transition in human MDA-MB-231 cells reduction in N-cadherin expression at 5 uM after 24 hrs by RT-PCR analysis; assay type: functional, cell-based
HCC38 [41] = test: Cell cycle arrest in human HCC38 cells assessed as increase in accumulation of cells at sub-G1 phase at 2.5 to 10 uM by PI/RNase staining based flow cytometric analysis; assay type: functional
MDA-MB-231 [42] = test: Induction of apoptosis in human MDA-MB-231 cells at 2.5 to 20 uM after 48 hrs by Annexin-V/PI staining based flow cytometric analysis; assay type: functional, cell-based
[43] = molecular target: Cyclin-dependent kinase 8 (Homo sapiens) (UniProt P49336); test: Inhibition of CDK8 in human MDA-MB-231 cells assessed as increase in P27 expression after 48 hrs by Western blot analysis; assay type: cell-based
MDA-MB-231 [44] = test: Inhibition of epithelial-mesenchymal transition in human MDA-MB-231 cells increase in E-cadherin expression at 5 uM after 24 hrs by RT-PCR analysis; assay type: functional, cell-based
[45] = molecular target: Cyclin-dependent kinase 8 (Homo sapiens) (UniProt P49336); test: Inhibition of CDK8 in human MDA-MB-231 cells assessed as reduction in skp2 expression after 48 hrs by Western blot analysis; assay type: cell-based
MDA-MB-231 [46] = test: Induction of apoptosis in human MDA-MB-231 cells assessed as increase in PARP cleavage after 48 hrs by Western blot analysis; assay type: functional, cell-based
MDA-MB-231 [47] = test: Inhibition of epithelial-mesenchymal transition in human MDA-MB-231 cells reduction in beta catenin protein expression after 24 hrs by Western blot analysis; assay type: functional, cell-based
HCC38 [48] = test: Inhibition of epithelial-mesenchymal transition in human HCC38 cells reduction in beta catenin protein expression after 24 hrs by Western blot analysis; assay type: functional, cell-based
MDA-MB-231 [49] = test: Antitumour activity against human MDA-MB-231 cells xenografted in Balb/c mouse assessed as reduction in tumour volume at 5 mg/kg, ip administered 3 times per week and measured 2 times per week for 29 days relative to control; assay type: functional; parameters: scale not given: the % may be the effect or the level left
HCC38 [50] = test: Inhibition of epithelial-mesenchymal transition in human HCC38 cells reduction in BMP4 protein expression after 24 hrs by Western blot analysis; assay type: functional, cell-based

## CC(=O)O[C@H]1C(=O)[C@@]2(C)[C@H]([C@H](OC(=O)c3ccccc3)[C@]3(O)C[C@H](OC(=O)[C@H](O)[C@@H](NC(=O)c4ccccc4)c4ccccc4)C(C)=C1C3(C)C)[C@]1(OC(C)=O)CO[C@@H]1C[C@@H]2O [PACLITAXEL]
Mus musculus [1]
  Activity: inactive
[2]
  Activity: Toxic
Mus musculus [3]
  Activity: Active
Mus musculus [4]
  Activity: inactive

## COc1cc(/C=C/C(=O)OC[C@H]2O[C@H](O[C@]3(COC(=O)/C=C/c4ccc(O)cc4)O[C@H](COC(=O)/C=C/c4ccc(O)cc4)[C@@H](O)[C@@H]3OC(=O)/C=C/c3ccc(O)cc3)[C@H](O)[C@@H](O)[C@@H]2O)ccc1O [VANICOSIDE B]
MDA-MB-231 [5]
  inhibition: Dose-dependent effect
[6]
  inhibition: Active
[7]
  inhibition: Dose-dependent effect
MDA-MB-231 [8]
  Activity: 65.72%
[9]
  inhibition: Dose-dependent effect
[10]
  inhibition: Dose-dependent effect
MDA-MB-231 [11]
  Activity: Active
HCC38 [12]
  inhibition: Active
MDA-MB-231 [13]
  inhibition: Active
[14]
  inhibition: Dose-dependent effect
MDA-MB-231 [15]
  Activity: Dose-dependent effect
MDA-MB-231 [15]; MDA-MB-231, 72 h
  pIC50: 5.05
MDA-MB-231 [16]
  inhibition: Dose-dependent effect
[17]
  inhibition: Dose-dependent effect
HCC38 [18]
  Activity: Active
HCC38 [19]
  Activity: Active
HCC38 [20]
  Activity: Dose-dependent effect
[21]
  inhibition: Dose-dependent effect
Mus musculus [22]
  Activity: Active
[23]
  inhibition: Dose-dependent effect
HCC38 [24]
  inhibition: Dose-dependent effect
[25]
  inhibition: Dose-dependent effect
HCC38 [26]
  inhibition: Active
Mus musculus [27]
  Activity: Active
Mus musculus [28]
  Activity: Active
HCC38 [29]
  inhibition: Active
[30]
  inhibition: Active
MDA-MB-231 [31]
  Activity: Active
HCC38 [32]
  Activity: Dose-dependent effect
MDA-MB-231 [33]
  inhibition: Active
HCC38 [34]
  inhibition: Active
[35]
  inhibition: Dose-dependent effect
[36]
  inhibition: Active
[37]
  inhibition: Dose-dependent effect
[38]
  inhibition: Active
[39]
  Activity: Non-Toxic
MDA-MB-231 [40]
  inhibition: Active
HCC38 [41]
  Activity: Active
MDA-MB-231 [42]
  Activity: Active
[43]
  inhibition: Dose-dependent effect
MDA-MB-231 [44]
  inhibition: Active
[45]
  inhibition: Dose-dependent effect
MDA-MB-231 [46]
  Activity: Dose-dependent effect
MDA-MB-231 [47]
  inhibition: Dose-dependent effect
HCC38 [48]
  inhibition: Dose-dependent effect
MDA-MB-231 [49]
  Activity: 53.85%
HCC38 [50]
  inhibition: Dose-dependent effect
